Results: patent US9694084B2, “Methods to induce targeted protein degradation through bifunctional molecules” (Dana-Farber Cancer Institute, Inc., priority 2014, dated 2017)

Tests used:
[1] = target: recombinant, human CRBN-DDB1 and BRD4 (Homo sapiens, UniProt O60885+Q96SW2); experiment: CRBN-DDB1/BRD4 dimerization (proximity) AlphaScreen assay; type: biochemical; conditions: co-incubation with 111 nM dBET1, competitor 1 μM, stereo-specific
[2] = tested on: MV4-11 cell proliferation; experiment: MV4-11 cell proliferation (ATP content); type: cell-based; conditions: Homo sapiens, MV4-11, 24 h, read-out: IC50, MV4-11 cell proliferation (ATP content)
MV4-11 cells = experiment: Apoptosis in MV4-11 cells (Caspase-GLO, PARP and Caspase-3 cleavage, Annexin V); type: cell-based, human; conditions: MV4-11, 4 or 8 hours then drug washout, assessed at 24 hours
PIM1 = experiment: Expression proteomics in MV4-11 cells; conditions: 250 nM, 2 hours

Structure (SMILES)	competition of dBET1 induced proximity [1]	IC50 [2] [nM]	apoptotic response after pulsed treatment (MV4-11 cells)	PIM1 protein abundance (PIM1)
Cc1sc2c(c1C)C(c1ccc(Cl)cc1)=N[C@@H](CC(=O)OC(C)(C)C)c1nnc(C)n1-2 [JQ1]	Inhibition of chemical adaptor function was accomplished	1100	did not yield a pronounced apoptotic response	downregulated
O=C1CCC(N2C(=O)c3ccccc3C2=O)C(=O)N1 (centres unmarked) [thalidomide]	Inhibition of chemical adaptor function was accomplished	–	–	–
